Source: ChEMBL document CHEMBL1133791, “Intracellular inhibition of human neutrophil elastase by orally active pyrrolidine-trans-lactams” (Bioorg Med Chem Lett, 2001)
Blank lines part the entries; values can stand above or below the compound they belong to. Residues, ends and D or L forms follow the SMILES beside them. *: point of attachment. CF3 = FC(F)(F)*; Moc = COC(=O)*

How the values were obtained:
[1] = target: T1, Neutrophil elastase (Homo sapiens) (UniProt P08246); assay: In vitro inhibition of human whole blood (HWB) elastase at a concentration of 10 uM
T1 sequence (whole entry): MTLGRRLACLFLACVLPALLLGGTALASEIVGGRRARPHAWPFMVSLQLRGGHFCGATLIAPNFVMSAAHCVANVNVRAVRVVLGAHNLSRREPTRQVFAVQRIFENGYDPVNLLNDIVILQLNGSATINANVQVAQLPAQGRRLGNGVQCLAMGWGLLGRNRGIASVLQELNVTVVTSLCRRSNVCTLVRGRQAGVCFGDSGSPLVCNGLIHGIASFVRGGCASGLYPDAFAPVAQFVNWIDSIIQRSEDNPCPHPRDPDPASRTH

Neutrophil elastase [2] = target: T2, Neutrophil elastase (Homo sapiens, UniProt P08246); assay: In vitro inhibitory activity against human neutrophil elastase (HNE)
T2 sequence (P08246 whole entry): T1 sequence (whole entry)

Neutrophil elastase [3] = target: T2, Neutrophil elastase; assay: In vitro inhibitory activity in human whole blood (HWB) elastase at a concentration of 10; format: tissue-based
[4] = Volume distribution after iv administration at 3 mg/kg in hamster; format: ADME, organism-based; set-up: dose 3 mg/kg, route intravenous; conditions: cricetinae, in vivo
[5] = Solubility in water was evaluated.; format: physicochemical
[6] = Bioavailability after po administration of 10 mg/kg in hamster; format: ADME, organism-based, Cricetulus griseus; conditions: chinese hamster, in vivo
[7] = target: T1, Neutrophil elastase (Homo sapiens); conditions: Cricetulus griseus; Liver; Microsome; 10 mg/kg
Description: Compound was evaluated for the inhibition of elastase in hamster liver microsomes at a concentration of 10 mg/kg

[8] = Half life after iv administration at 3 mg/kg in hamster; format: ADME, organism-based; set-up: dose 3 mg/kg, route intravenous; conditions: cricetinae, in vivo
[9] = target: T1, Neutrophil elastase (Homo sapiens); conditions: Cricetulus griseus; Liver; Microsome; 20 mg/kg
Description: Compound was evaluated for the inhibition of elastase in hamster liver microsomes at a concentration of 20 mg/kg

[10] = Half life after po administration of 10 mg/kg in hamster; format: ADME, organism-based; set-up: dose 10 mg/kg, route oral; conditions: cricetinae, in vivo
Hamster [11] = assay: Plasma clearance after iv administration at 3 mg/kg in hamster; format: ADME, organism-based; set-up: dose 3 mg/kg, route intravenous; conditions: cricetinae, in vivo
[12] = target: T1, Neutrophil elastase (Homo sapiens); assay: In vitro inhibition of human whole blood (HWB) elastase at a concentration of 10 uM except in buffer
[13] = target: T1, Neutrophil elastase (Homo sapiens); assay: In vitro percent inhibition of human whole blood (HWB) elastase at a concentration of 10 uM except in plasma; format: tissue-based
Neutrophil elastase [14] = target: T2, Neutrophil elastase; assay: In vitro inhibitory activity in human whole blood (HWB) elastase; format: tissue-based
[15] = Bioavailability after po administration at 4 mg/kg in hamster; format: ADME, organism-based, Cricetulus griseus; conditions: chinese hamster, in vivo
[16] = target: T1, Neutrophil elastase (Homo sapiens); assay: Compound was evaluated in vivo for the inhibition of elastase in hamster bronchoalveolar lavage (BAL) 6 hour after an intratracheal dose of IL-8 at a concentration 10 mg/kg; format: organism-based; set-up: dose 10 mg/kg; conditions: Cricetulus griseus; Lung
Hamster [17] = assay: Plasma clearance after iv administration at 4 mg/kg in hamster; format: ADME, organism-based; set-up: dose 4 mg/kg, route intravenous; conditions: cricetinae, in vivo
[18] = Half life after iv administration at 4 mg/kg in hamster; format: ADME, organism-based; set-up: dose 4 mg/kg, route intravenous; conditions: cricetinae, in vivo
[19] = target: T1, Neutrophil elastase (Homo sapiens); assay: Compound was evaluated in vivo for the inhibition of elastase in hamster bronchoalveolar lavage (BAL) 6 hour after an intratracheal dose of IL-8 at a concentration 40 mg/kg; format: organism-based; set-up: dose 40 mg/kg; conditions: Cricetulus griseus; Lung
[20] = Volume distribution after iv administration at 4 mg/kg in hamster; format: ADME, organism-based; set-up: dose 4 mg/kg, route intravenous; conditions: cricetinae, in vivo
[21] = target: T1, Neutrophil elastase (Homo sapiens); assay: Compound was evaluated in vivo for the inhibition of elastase in hamster bronchoalveolar lavage (BAL) 6 hour after an intratracheal dose of IL-8 at a concentration 20 mg/kg; format: organism-based; set-up: dose 20 mg/kg; conditions: Cricetulus griseus; Lung

inhibition [1]: 98%
Structure (SMILES): C=CC[C@H]1C(=O)N(S(C)(=O)=O)[C@H]2CCN(C(=O)OCc3ccccc3)[C@H]12

IC50 (Neutrophil elastase [2]): 0.029 µM
Structure (SMILES): C=CC[C@H]1C(=O)N(CCCCCC)[C@H]2CCN(C(=O)OCc3ccccc3)[C@H]12

IC50 (Neutrophil elastase [2]): > 0.5 µM
Structure (SMILES): C=CC[C@H]1C(=O)N[C@H]2CCN(C(=O)OCc3ccccc3)[C@@H]21

IC50 (Neutrophil elastase [2]): 0.002 µM
Structure (SMILES): C=CC[C@H]1C(=O)N(C(=O)OCC)[C@H]2CCN(C(=O)OCc3ccccc3)[C@H]12

IC50 (Neutrophil elastase [2]): 0.031 µM
Structure (SMILES): C=CC[C@H]1C(=O)N(C(=O)NCC)[C@H]2CCN(C(=O)OCc3ccccc3)[C@H]12

inhibition [12]: 92%
inhibition [13]: 23%
Structure (SMILES): C=CC[C@H]1C(=O)N(S(=O)(=O)c2ccc3ccccc3c2)[C@H]2CCN(C(=O)OCc3ccccc3)[C@H]12

The next lines start with the compound.

Structure (SMILES): CCC[C@@H](NC(=O)N1C(=O)C(CC)(CC)[C@@H]1Oc1ccc(C(=O)N2CCN(C)CC2)cc1)c1ccc2c(c1)OCO2
IC50 (Neutrophil elastase [3]): 0.00045 µM

Structure (SMILES): CCC[C@H]1C(=O)N(S(C)(=O)=O)[C@H]2CCN(C(=O)CCN3CCCCC3)[C@H]12.Cl
Vd [4]: 2.3 L/kg
solubility [5]: > 1 mg/mL
bioavailability [6]: 49%
inhibition [7]: 41%
half-life [8]: 12 min
inhibition [9]: 76%
half-life [10]: 30 min
IC50 (Neutrophil elastase [2]): 0.14 µM
Clp (Hamster [11]): 8.4 L/h/kg

Structure (SMILES): COC(=O)N[C@H](C(=O)N1CCC[C@H]1C(=O)N[C@H](C(=O)C(F)(F)F)C(C)C)C(C)C (Moc-Val-Pro-Val-CF3)
IC50 (Neutrophil elastase [14]): > 0.01 µM

Structure (SMILES): CCC[C@H]1C(=O)N(S(=O)(=O)c2ccc3ccccc3c2)[C@H]2CCN(C(=O)CCN3CCCCC3)[C@H]12.Cl
bioavailability [15]: 1%
inhibition [16]: 10%
Clp (Hamster [17]): 12 L/h/kg
half-life [18]: 30 min
inhibition [19]: 60%
solubility [5]: > 1 mg/mL
Vd [20]: 8.1 L/kg
inhibition [21]: 30%
IC50 (Neutrophil elastase [2]): 0.137 µM
